Reference: article PMC9369007 (International Journal of Molecular Sciences, 2022)

Tests used:
MCF-7 cells [1] = experiment: MTT cytotoxicity assay, MCF-7; details: Homo sapiens, MCF7, 72 h, read-out: In Vitro Cytotoxicity IC50 MCF-7
Description: (§4) The in vitro cytotoxic testing of novel derivatives was performed against different three cancer cell lines, HepG2, MCF-7, and HCT116, using standard MTT assay as previously reported [22, 62, 63, 64].

MCF-7 cells [2] = experiment: Annexin V-FITC/PI dual staining apoptosis assay; format: cell-based, human; details: MCF-7, 2.0 µM, 24 h
Description: This test used the breast MCF-7 cell line to assess the percentage of apoptosis caused by compound 27, in which MCF-7 cells were treated with compound 27 at 2.0 µM concentration for 24 h to measure the percentage of apoptosis induced by compound 27. […] These findings are in line with statistics derived from DNA content.
Each sample’s histogram was separated into four quadrants to show viable (lower left quadrant), necrotic (higher left quadrant), apoptotic (lower right quadrant), and necrotic/late apoptotic (upper right quadrant) cells. The Annexin V Apoptosis Detection Kit is based on the finding that apoptotic cells can transport phosphatidylserine (PS) from the plasma membrane’s inner surface to the cell surface. As a result, the presence of PS on the cell surface is regarded as an important technique for detecting apoptotic cells. PS can be easily detected by labeling with a fluorescent compound of annexin V, a protein with a high affinity for PS, and then analyzing the results by flow cytometry. When annexin V and PI staining are performed simultaneously, the kit can distinguish between apoptosis and necrosis. Only when the plasma membrane is completely damaged may PI enter the cell. This allows early apoptotic cells (negative for PI but positive for PS) to be distinguished from late apoptotic and necrotic cells (positive for both PI and PS). […] Cells were tested using annexin V and PI double-staining flow cytometry, which detect both PS residues and DNA, respectively, to validate the potential to trigger apoptosis. They were then cultured for 24 h before being examined. The tested compound was able to produce considerable levels of cell death in a dose-dependent manner, according to analyses of early and late apoptosis (Table 4, Figure 2 and Figure 3).
(§1) Using the annexin V-FITC and PI apoptosis kit (eBioscience^TM, San Diego, CA, USA), the apoptosis detection was performed. MCF cells were plated onto a six-well plate at a 600,000 cells/mL density and then treated with compound 27 at […] after 24 h of incubation, and the assay was completed as previously described.
The MCF-7 cells were treated with tested compounds 27 for 24 h and stained with annexin V-FITC/PI to detect externalization of PS from cell membrane and analyze apoptotic and necrotic cell population as previously described.

hMAO-A = molecular target: T1, hMAO-A (Homo sapiens, UniProt P21397); experiment: MAO activity screening, hMAO-A; format: biochemical; details: tyramine at 2 × KM (0.8 mM); two independent experiments
T1 sequence (P21397 1-527): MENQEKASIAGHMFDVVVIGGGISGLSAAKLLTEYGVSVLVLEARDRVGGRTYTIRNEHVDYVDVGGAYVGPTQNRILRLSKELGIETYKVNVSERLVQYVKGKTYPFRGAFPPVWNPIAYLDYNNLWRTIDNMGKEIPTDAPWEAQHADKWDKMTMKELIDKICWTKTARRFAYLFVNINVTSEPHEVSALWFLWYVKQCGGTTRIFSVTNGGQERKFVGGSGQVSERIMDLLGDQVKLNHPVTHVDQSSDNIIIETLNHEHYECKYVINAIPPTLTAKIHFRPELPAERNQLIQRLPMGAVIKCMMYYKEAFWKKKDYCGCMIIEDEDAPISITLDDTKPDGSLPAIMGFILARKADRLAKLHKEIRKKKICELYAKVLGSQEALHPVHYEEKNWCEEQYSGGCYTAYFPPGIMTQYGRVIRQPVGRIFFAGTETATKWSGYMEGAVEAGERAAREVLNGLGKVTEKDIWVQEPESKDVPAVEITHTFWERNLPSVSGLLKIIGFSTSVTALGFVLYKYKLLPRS
Description: (§2) Here, the potent selective compound 27 was screened for measuring target selectivity against high structural similar membrane-bound human hMAO-A and hMAO-B at 10 µM in the presence of tyramine at 2 × KM (0.8 mM for MAO-A and 0.32 mM for MAO-B) (Table 5).
(§3) The coupled assay approach was used to evaluate MAO activity in which the product, H2O2, acts with horseradish peroxidase to convert 10-acetyl-3,7-dihydroxyphenoxazine to the fluorescent resorufin. The percent inhibition was computed from the top and bottom of the resultant curve using the equation for a three-parameter curve in GraphPad Prism v. 4, (Graphstats, New York, NY, USA).

MCF-7 cells [3] = experiment: Cell cycle analysis by flow cytometry; format: cell-based, human; parameters: DNA Content %G0-G1 / DNA Content %S / DNA Content %G2-M / DNA Content %Pre G1: dose or concentration left out as unconfirmed; details: MCF-7, 24 h
Description: The cell cycle is a series of growth and development processes that culminate in DNA replication and cell division. G1 phase, S phase (synthesis), G2 phase, and M phase are the four different phases. We chose our promising chemical 27 based on the results of the MTT assay (Table 1) to further examine its effect on the apoptotic process and investigate its ability to play an active role in cell cycle progression in MCF-7 cells. MCF-7 cells were treated for 24 h with compound 27 at a concentration of […], and flow cytometry was performed in the presence of annexin V-FITC/PI.
as §1
Cell cycle arrest and distribution was assessed, using the Propidium Iodide Flow Cytometry Kit (ab139418, Abcam, USA, CA, USA), followed by flow cytometry analysis according to the previous methodology.

hMAO-B = molecular target: T2, hMAO-B (Homo sapiens, UniProt P27338); experiment: MAO activity screening, hMAO-B; format: biochemical; details: tyramine at 2 × KM (0.32 mM); two independent experiments
T2 sequence (P27338 1-520): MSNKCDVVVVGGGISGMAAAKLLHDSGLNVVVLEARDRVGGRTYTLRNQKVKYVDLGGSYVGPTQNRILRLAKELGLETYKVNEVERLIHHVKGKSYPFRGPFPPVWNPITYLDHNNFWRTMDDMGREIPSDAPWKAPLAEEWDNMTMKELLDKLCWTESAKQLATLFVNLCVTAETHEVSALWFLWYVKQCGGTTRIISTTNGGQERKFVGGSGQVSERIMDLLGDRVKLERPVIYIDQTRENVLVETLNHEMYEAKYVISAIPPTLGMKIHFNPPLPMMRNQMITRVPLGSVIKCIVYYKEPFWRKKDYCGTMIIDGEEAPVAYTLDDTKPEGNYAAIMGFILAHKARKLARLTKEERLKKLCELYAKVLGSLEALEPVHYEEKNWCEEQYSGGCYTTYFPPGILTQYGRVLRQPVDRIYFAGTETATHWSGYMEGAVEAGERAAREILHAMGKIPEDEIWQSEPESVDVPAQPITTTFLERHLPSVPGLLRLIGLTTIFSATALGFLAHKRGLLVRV
Description: as §2, §3

in vitro = details: human, WI38 normal lung fibroblast cells
HepG2 and MCF-7 cells = experiment: DNA fragmentation, diphenylamine test; format: cell-based, human; details: 24 h at IC50 value, untreated control about 4.7 ± 0.2%
Description: Apoptosis is characterized by DNA fragmentation, which occurs in all stages of the process. The percentage of fragmented DNA released into the cytoplasm from apoptotic nuclei was determined using a diphenylamine test.
DNA fragmentation was quantitatively determined using a diphenylamine (DPA) reagent according to the method of Boraschi and Maurizi.

HCT116 cells = experiment: MTT cytotoxicity assay, HCT116; details: Homo sapiens, HCT-116, 72 h, read-out: In Vitro Cytotoxicity IC50 HCT116
Description: as §4

HepG2 cells = experiment: MTT cytotoxicity assay, HepG2; details: Homo sapiens, HepG2, 72 h, read-out: In Vitro Cytotoxicity IC50 HepG2
Description: as §4

LSD1 demethylase = LSD1 demethylase (Homo sapiens, UniProt O60341); experiment: LSD1 demethylase inhibition assay
Description: The inhibition of LSD1 activity by our tested compounds was evaluated according to a previously reported procedure [65, 66, 67, 68] and as mentioned in the assay kit in Supplementary Materials.

IC50 (hMAO-A): 87.1 ± 2.36 µM
IC50 (hMAO-B): > 100 µM
IC50 at 72 h (in vitro): > 85 µM
IC50 (LSD1 demethylase; LSD1 inhibition IC50, as quoted in the docking section): 0.0464 µM
IC50 (LSD1 demethylase; LSD1 inhibitory IC50, Table 2, mean ± S.D., at least three tests): 0.046 ± 0.003 µM
SMILES: C=CCNc1nnc(-c2cc(-c3nnc(NCC=C)s3)cc(-c3nnc(NCC=C)s3)c2)s1 [Compound 27, 5,5′,5″-(benzene-1,3,5-triyl)tris(N-allyl-1,3,4-thiadiazol-2-amine)]
IC50 (MCF-7 cells [1]): 1.52 ± 1.02 µM
Apoptosis Early (MCF-7 cells [2]): 5.33%
Apoptosis Late (MCF-7 cells [2]): 20.53%
Apoptosis Total (MCF-7 cells [2]): 37.11%
Enhancement of late apoptosis compared with untreated cells (MCF-7 cells [2]): 114 fold
Necrosis (MCF-7 cells [2]): 11.25%
Comment (cell cycle) (MCF-7 cells [3]): pre G1 Apoptosis and cell cycle arrest at G2-M
DNA Content %G0-G1 (MCF-7 cells [3]): 35.15%
DNA Content %G2-M (MCF-7 cells [3]): 35.59%
DNA Content %Pre G1 (MCF-7 cells [3]): 37.11%
DNA Content %S (MCF-7 cells [3]): 28.26%
Percentage of DNA fragmentation (HepG2 and MCF-7 cells): ~23 ± 1.2%
IC50 (HCT116 cells): 10.3 ± 0.15 µM
IC50 (HepG2 cells): 24.7 ± 1.01 µM
